# From ChEMBL document CHEMBL1201862, “PubChem BioAssay data set” (2004)
#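 These data come from cells grown in 96-well plates and exposed to compound for 48 hours at five concentrations. GI50 marks 50% less growth.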 Calls of active or inactive are those of the source. No stated cut-off is given here; in the data, active = GI50 up to about 1.1 µM and inactive = higher.
# Tests used:
# Experiment in all cases: DTP human tumour cell line panel, 48 h
# SK-OV-3 = tested on: SK-OV-3
# LOX IMVI = tested on: LOX IMVI
# COLO 205 = tested on: COLO 205
# TK-10 = tested on: TK-10
# RXF 393 = tested on: RXF 393
# BT-549 = tested on: BT-549
# SF-268 = tested on: SF-268
# MCF7 = tested on: MCF7
# HOP-92 = tested on: HOP-92
# NCI-H460 = tested on: NCI-H460
# UACC-62 = tested on: UACC-62
# KM12 = tested on: KM12
# SNB-19 = tested on: SNB-19
# 786-0 = tested on: 786-0
# OVCAR-8 = tested on: OVCAR-8
# SK-MEL-2 = tested on: SK-MEL-2
# SF-539 = tested on: SF-539
# OVCAR-5 = tested on: OVCAR-5
# CCRF-CEM = tested on: CCRF-CEM
# K562 = tested on: K562
Compound,GI50 (SK-OV-3),GI50 (LOX IMVI),GI50 (COLO 205),GI50 (TK-10),GI50 (RXF 393),GI50 (BT-549),GI50 (SF-268),GI50 (MCF7),GI50 (HOP-92),GI50 (NCI-H460),GI50 (UACC-62),GI50 (KM12),GI50 (SNB-19),GI50 (786-0),GI50 (OVCAR-8),GI50 (SK-MEL-2),GI50 (SF-539),GI50 (OVCAR-5),GI50 (CCRF-CEM),GI50 (K562)
C=C1C(C(=O)OC)[C@H]1C(=O)OC (some centres not stated),> 100 µM (inactive),> 100 µM (inactive),> 100 µM (inactive),> 100 µM (inactive),> 100 µM (inactive),> 100 µM (inactive),> 100 µM (inactive),> 100 µM (inactive),> 100 µM (inactive),> 100 µM (inactive),> 100 µM (inactive),> 100 µM (inactive),> 100 µM (inactive),> 100 µM (inactive),> 100 µM (inactive),> 100 µM (inactive),> 100 µM (inactive),> 100 µM (inactive),,
COc1ccc(C2CC(c3ccc4ccccc4c3O)=NN2)cc1OC (configuration not stated),> 100 µM (inactive),,38.7 µM (inactive),95.1 µM (inactive),74.1 µM (inactive),23.5 µM (inactive),47.5 µM (inactive),32.7 µM (inactive),> 100 µM (inactive),34.6 µM (inactive),42.4 µM (inactive),48.4 µM (inactive),,37.8 µM (inactive),43.6 µM (inactive),52 µM (inactive),31.3 µM (inactive),> 100 µM (inactive),14.9 µM (inactive),21.7 µM (inactive)
COc1cc(COC(=O)NC(Cc2cccs2)C(=O)O)c([N+](=O)[O-])cc1OC (configuration not stated),> 100 µM (inactive),,> 100 µM (inactive),> 100 µM (inactive),> 100 µM (inactive),> 100 µM (inactive),> 100 µM (inactive),> 100 µM (inactive),> 100 µM (inactive),> 100 µM (inactive),> 100 µM (inactive),> 100 µM (inactive),> 100 µM (inactive),> 100 µM (inactive),> 100 µM (inactive),,> 100 µM (inactive),> 100 µM (inactive),> 100 µM (inactive),> 100 µM (inactive)
O=C1NC2CCCCC2NC1=C(C(=O)c1ccccc1)C(=O)c1ccccc1 (configuration not stated),25.4 µM (inactive),38.1 µM (inactive),32.8 µM (inactive),84.1 µM (inactive),> 100 µM (inactive),10.9 µM (inactive),69.2 µM (inactive),16.9 µM (inactive),,27.4 µM (inactive),22.8 µM (inactive),42.7 µM (inactive),65.9 µM (inactive),> 100 µM (inactive),25.5 µM (inactive),33.6 µM (inactive),43.2 µM (inactive),> 100 µM (inactive),11 µM (inactive),35.5 µM (inactive)
Oc1cnnc2nc3ccccc3n12,,85.5 µM (inactive),> 100 µM (inactive),> 100 µM (inactive),> 100 µM (inactive),> 100 µM (inactive),> 100 µM (inactive),> 100 µM (inactive),> 100 µM (inactive),> 100 µM (inactive),,> 100 µM (inactive),> 100 µM (inactive),> 100 µM (inactive),> 100 µM (inactive),> 100 µM (inactive),> 100 µM (inactive),> 100 µM (inactive),> 100 µM (inactive),
COc1ccc(NC(S)=Nc2ccccc2)cc1,> 100 µM (inactive),> 100 µM (inactive),> 100 µM (inactive),> 100 µM (inactive),98.2 µM (inactive),> 100 µM (inactive),> 100 µM (inactive),> 100 µM (inactive),> 100 µM (inactive),> 100 µM (inactive),> 100 µM (inactive),,> 100 µM (inactive),> 100 µM (inactive),> 100 µM (inactive),> 100 µM (inactive),> 100 µM (inactive),> 100 µM (inactive),,> 100 µM (inactive)
CC(C)(C)C1=CC(C)(n2[nH]c(=O)n(-c3ccccc3)c2=O)C=C(C(C)(C)C)C1=O,> 100 µM (inactive),> 100 µM (inactive),> 100 µM (inactive),> 100 µM (inactive),,> 100 µM (inactive),> 100 µM (inactive),> 100 µM (inactive),> 100 µM (inactive),> 100 µM (inactive),75.3 µM (inactive),> 100 µM (inactive),> 100 µM (inactive),> 100 µM (inactive),> 100 µM (inactive),> 100 µM (inactive),> 100 µM (inactive),,,47 µM (inactive)
c1ccc2c3c(ccc2c1)CSCc1ccc2ccccc2c1-3,,> 100 µM (inactive),> 100 µM (inactive),> 100 µM (inactive),> 100 µM (inactive),> 100 µM (inactive),> 100 µM (inactive),> 100 µM (inactive),22.2 µM (inactive),,> 100 µM (inactive),> 100 µM (inactive),> 100 µM (inactive),> 100 µM (inactive),> 100 µM (inactive),> 100 µM (inactive),54.1 µM (inactive),> 100 µM (inactive),> 100 µM (inactive),> 100 µM (inactive)
COc1ccc(OCc2ccc3nc(-c4ccccc4)c(Cl)nc3c2)cc1,,84.5 µM (inactive),16.6 µM (inactive),17.7 µM (inactive),,0.018 µM (active),25.2 µM (inactive),37.6 µM (inactive),14.5 µM (inactive),16.7 µM (inactive),> 10 µM (inactive),> 100 µM (inactive),26.5 µM (inactive),10.6 µM (inactive),44.7 µM (inactive),26.9 µM (inactive),12.9 µM (inactive),32.1 µM (inactive),15.8 µM (inactive),0.0889 µM (active)
CC(=O)OC1CC2c3cccc4c3C(CC2N(C)C1=O)CN4C(=O)c1ccccc1 (configuration not stated),22.7 µM (inactive),12.1 µM (inactive),23.3 µM (inactive),29.8 µM (inactive),,6.9 µM (inactive),2.2 µM (inactive),23.1 µM (inactive),4.25 µM (inactive),,20.3 µM (inactive),21.3 µM (inactive),30.3 µM (inactive),15.2 µM (inactive),16.4 µM (inactive),20.5 µM (inactive),25.8 µM (inactive),32.4 µM (inactive),20.7 µM (inactive),27.5 µM (inactive)
C/C(=N\NC(=N)N)C(CN(C)C)C(c1ccccc1)c1c(O)c2ccccc2oc1=O (configuration not stated),> 100 µM (inactive),> 100 µM (inactive),> 100 µM (inactive),> 100 µM (inactive),,72.9 µM (inactive),> 100 µM (inactive),> 100 µM (inactive),4.91 µM (inactive),> 100 µM (inactive),> 47.6 µM (inactive),> 100 µM (inactive),> 100 µM (inactive),> 100 µM (inactive),> 100 µM (inactive),> 100 µM (inactive),> 100 µM (inactive),> 100 µM (inactive),> 100 µM (inactive),> 100 µM (inactive)
O=C(C#Cc1cn(C2CC(O)C(CO)O2)c(=O)[nH]c1=O)c1ccccc1 (configuration not stated),> 100 µM (inactive),49.8 µM (inactive),28.6 µM (inactive),> 100 µM (inactive),17.5 µM (inactive),37.2 µM (inactive),> 100 µM (inactive),33.3 µM (inactive),29.5 µM (inactive),> 100 µM (inactive),> 100 µM (inactive),> 100 µM (inactive),> 100 µM (inactive),62.2 µM (inactive),> 100 µM (inactive),> 100 µM (inactive),23.2 µM (inactive),,,
CCN(CC)CCc1c2c(nc3ccccc13)C(=O)c1cccnc1C2=O,1.09 µM (active),0.369 µM (active),1.58 µM (inactive),2.66 µM (inactive),2.37 µM (inactive),2.4 µM (inactive),2.44 µM (inactive),0.345 µM (active),3.13 µM (inactive),,1.54 µM (inactive),0.857 µM (active),,2.07 µM (inactive),3.52 µM (inactive),2.94 µM (inactive),,4.63 µM (inactive),1.97 µM (inactive),1.16 µM (inactive)
Cc1ccc(NCC2CC/C(=C\c3ccc(Cl)cc3)C2=O)cc1 (configuration not stated),> 100 µM (inactive),6.03 µM (inactive),14.8 µM (inactive),11.3 µM (inactive),17 µM (inactive),15.3 µM (inactive),18.5 µM (inactive),2.83 µM (inactive),0.569 µM (active),21.7 µM (inactive),18.4 µM (inactive),5.66 µM (inactive),21.2 µM (inactive),4.12 µM (inactive),15.9 µM (inactive),,23.7 µM (inactive),22 µM (inactive),2.39 µM (inactive),1.74 µM (inactive)
NC(=O)c1cc(-c2ccc(-n3ccnc3)cc2)nnc1O,> 100 µM (inactive),,> 100 µM (inactive),> 100 µM (inactive),> 100 µM (inactive),> 100 µM (inactive),> 100 µM (inactive),67.6 µM (inactive),> 100 µM (inactive),> 100 µM (inactive),> 100 µM (inactive),,> 100 µM (inactive),> 100 µM (inactive),> 100 µM (inactive),,> 100 µM (inactive),> 100 µM (inactive),> 100 µM (inactive),
